Molecular target: USP7 (Homo sapiens (Human), UniProt Q93009)
Experiment: USP7 Assays A and B (Ubiquitin-Rhodamine 110 assay)
Type: biochemical
Details: USP7 (208-1102) 6*His; substrate Ub-Rh110 25 nM; assays A and B not distinguished
Experimental: Example 9: USP7 Assay A (Ubitquin-Rhodamine 110 Assay)
Each assay was performed in a final volume of 15 μL in assay buffer containing 20 mM Tris-HCl (pH 8.0, (1M Tris-HCl, pH 8.0 solution; Corning 46-031-CM)), 1 mM GSH (L-Glutathione reduced; Sigma #G4251), 0.03% BGG (0.22 μM filtered, Sigma, #G7516-25G), and 0.01% Triton X-100 (Sigma, #T9284-10L). Nanoliter quantities of either an 8-point or 10-point, 3-fold serial dilution in DMSO was pre-dispensed into assay plates (Perkin Elmer, ProxiPlate-384 F Plus, #6008269) for a final test concentration range of either 25 μM to 11 nM or 25 μM to 1.3 nM, respectively. The final concentration of the enzyme (USP7, construct USP7 (208-1102) 6*His, Viva Biotech) in the assay was 62.5 pM. Final substrate (Ub-Rh110; Ubiquitin-Rhodamine 110, R&D Systems #U-555) concentration was 25 nM with [Ub-Rh110]<<Km. 5 μL of 2× enzyme was added to assay plates (pre-stamped with compound) preincubated with USP7 for 30 min and then 5 μL of 2×Ub-Rh110 was added to assay plates. Plates were incubated stacked for 20 min at room temperature before 5 μL of stop solution (final concentration of 10 mM citric acid in assay buffer (Sigma, #251275-500G)). Fluorescence was read on the Envision (Excitation at 485 nm and Emission at 535 nm; Perkin Elmer) or on the PheraSTAR (Excitation at 485 nm and Emission at 535 nm; BMG Labtech).
Example 10: USP7 Assay B (Ubitquin-Rhodamine 110 Assay)
Each assay was performed in a final volume of 20 μL in assay buffer containing 20 mM Tris-HCl (pH 8.0, (1M Tris-HCl, pH 8.0 solution; Corning 46-031-CM)), 2 mM CaCl2 (1M Calcium Chloride solution; Sigma #21114) 1 mM GSH (L-Glutathione reduced; Sigma #G4251), 0.01% Prionex (0.22 μM filtered, Sigma #G-0411), and 0.01% Triton X-100. Stock compound solutions were stored at −20° C. as 10 mM in DMSO. Up to 1 month prior to the assay, 2 mM test compounds were pre-dispensed into assay plates (Black, low volume; Corning #3820) and frozen at −20° C. Prestamped assay plates were allowed to come to room temperature on the day of the assay. For the screen, 100 nL of 2 mM was pre-dispensed for a final screening concentration of 10 μM (DMSO(fc)=0.5%). For follow-up studies, 250 nL of an 8-point, 3-fold serial dilution in DMSO was pre-dispensed into assay plates for a final test concentration of 25 μM-11 nM (1.25% DMSO final concentration). Unless otherwise indicated, all follow-up assays were run on triplecate plates. Enzyme (USP7, construct Met (208-1102)-TEV-6*His; Viva Q93009-1) concentration and incubation times were optimized for the maximal signal-to-background while maintaining initial velocity conditions at a fixed substrate concentration. The final concentration of the enzyme in the assay was either 75 pM or 250 pM. Final substrate (Ub-Rh110; Ubiquitin-Rhodamine 110, R&D Systems (biotechne)#U-555) concentration was 25 nM with [Ub-Rh110]<<Km. Pre-stamped with compounds were either not preincubated or preincubated with USP7 between 30 to 120 min prior to the addition of 10 μL of 2×Ub-Rh110 to compound plates. Plates were incubated stacked for either 23 or 45 min at room temperature before fluorescence was read on the Envision (Excitation at 485 nm and Emission at 535 nm; Perkin Elmer) or on the PheraSTAR (Excitation at 485 nm and Emission at 535 nm; BMG Labtech).
Data from USP7 Assays A and B were reported as percent inhibition (inh) compared with control wells based on the following equation: % inh=1−((FLU−AveLow)/(AveHigh−AveLow)) where FLU=measured Fluorescence. AveLow=average Fluorescence of no enzyme control (n=16). AveHigh=average Fluorescence of DMSO control (n=16). IC50 values were determined by curve fitting of the standard 4 parameter logistic fitting algorithm included in the Activity Base software package: IDBS XE Designer Model205. Data is fitted using the Levenburg Marquardt algorithm.

Sequence of USP7 (Q93009 208-1102): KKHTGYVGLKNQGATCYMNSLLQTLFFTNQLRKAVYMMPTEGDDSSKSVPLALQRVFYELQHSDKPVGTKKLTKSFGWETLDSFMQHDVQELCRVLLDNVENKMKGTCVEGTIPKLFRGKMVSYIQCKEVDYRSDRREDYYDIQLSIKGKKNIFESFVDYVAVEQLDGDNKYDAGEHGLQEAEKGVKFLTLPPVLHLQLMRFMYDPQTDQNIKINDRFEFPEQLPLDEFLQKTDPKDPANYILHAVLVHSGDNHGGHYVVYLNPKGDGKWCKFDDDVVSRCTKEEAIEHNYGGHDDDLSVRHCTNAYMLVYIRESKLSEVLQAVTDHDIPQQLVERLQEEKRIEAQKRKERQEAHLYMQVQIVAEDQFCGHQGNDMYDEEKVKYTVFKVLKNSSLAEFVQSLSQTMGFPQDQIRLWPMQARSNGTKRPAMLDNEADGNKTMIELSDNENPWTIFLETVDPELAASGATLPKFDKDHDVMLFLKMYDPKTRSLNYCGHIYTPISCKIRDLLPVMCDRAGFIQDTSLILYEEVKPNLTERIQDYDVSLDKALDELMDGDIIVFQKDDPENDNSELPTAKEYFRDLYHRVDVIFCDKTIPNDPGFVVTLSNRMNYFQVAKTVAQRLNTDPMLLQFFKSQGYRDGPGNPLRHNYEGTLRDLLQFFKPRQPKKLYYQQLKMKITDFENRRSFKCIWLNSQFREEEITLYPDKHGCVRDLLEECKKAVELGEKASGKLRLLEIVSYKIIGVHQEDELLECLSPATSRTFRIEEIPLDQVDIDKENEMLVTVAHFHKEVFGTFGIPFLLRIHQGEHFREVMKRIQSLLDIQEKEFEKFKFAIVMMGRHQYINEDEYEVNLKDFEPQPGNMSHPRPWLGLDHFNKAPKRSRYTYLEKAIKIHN

SMILES | IC50 [nM]
COc1ccc2c(=O)n(CC3(O)CCN(C(=O)C[C@@H](C)c4ccccc4)CC3)cnc2c1 [Compound I-5, (R)-3-((4-hydroxy-1-(3-phenylbutanoyl)piperidin-4-yl)methyl)-7-methoxyquinazolin-4(3H)-one] | < 200
Cc1ccc2c(=O)n(CC3(O)CCN(C(=O)c4ccc5c(c4)CCN5Cc4ccccc4)CC3)cnc2c1 [Compound I-7, 3-((1-(1-benzylindoline-5-carbonyl)-4-hydroxypiperidin-4-yl)methyl)-7-methylquinazolin-4(3H)-one] | 1000 to 10000
CC(CC(=O)N1CCC(O)(Cn2cnc3cnccc3c2=O)CC1)c1ccccc1 (stereo not shown) [Compound I-12, 3-((4-hydroxy-1-(3-phenylbutanoyl)piperidin-4-yl)methyl)pyrido[3,4-d]pyrimidin-4(3H)-one] | 1000 to 10000
CC(CC(=O)N1CCC(O)(Cn2cnc3ncccc3c2=O)CC1)c1ccccc1 (stereo not shown) [Compound I-11, 3-((4-hydroxy-1-(3-phenylbutanoyl)piperidin-4-yl)methyl)pyrido[2,3-d]pyrimidin-4(3H)-one] | > 10000
O=C(c1ccccc1)N1CCC(O)(Cn2cnc3cc(-c4ccccc4)ccc3c2=O)CC1 [Compound I-8, 3-((1-benzoyl-4-hydroxypiperidin-4-yl)methyl)-7-phenylquinazolin-4(3H)-one] | > 10000
CC(CC(=O)N1CCC(O)(Cn2cnc3cc(N)ccc3c2=O)CC1)c1ccccc1 (stereo not shown) [Compound I-3, 7-amino-3-((4-hydroxy-1-(3-phenylbutanoyl)piperidin-4-yl)methyl)quinazolin-4(3H)-one] | < 200
Cc1cccc2c(=O)n(CC3(O)CCN(C(=O)C[C@@H](C)c4ccccc4)CC3)cnc12 [Compound I-6, (R)-3-((4-hydroxy-1-(3-phenylbutanoyl)piperidin-4-yl)methyl)-8-methylquinazolin-4(3H)-one] | < 200
CC(=O)Nc1ccc2c(=O)n(CC3(O)CCN(C(=O)CC(C)c4ccccc4)CC3)cnc2c1 (stereo not shown) [Compound I-4, N-(3-((4-hydroxy-1-(3-phenylbutanoyl)piperidin-4-yl)methyl)-4-oxo-3,4-dihydroquinazolin-7-yl)acetamide] | < 200
CC(CC(=O)N1CCC(O)(Cn2cnc3cccnc3c2=O)CC1)c1ccccc1 (stereo not shown) [Compound I-13, 3-((4-hydroxy-1-(3-phenylbutanoyl)piperidin-4-yl)methyl)pyrido[3,2-d]pyrimidin-4(3H)-one] | 200 to 1000
O=C(c1ccc(F)cc1)N1CCC(O)(Cn2cnc3c(Oc4ccc(F)cc4)cccc3c2=O)CC1 [Compound I-10, 3-((1-(4-fluorobenzoyl)-4-hydroxypiperidin-4-yl)methyl)-8-(4-fluorophenoxy)quinazolin-4(3H)-one] | 1000 to 10000
Cc1cccc2c(=O)n(CC3(O)CCN(C(=O)CC(C)c4ccccc4)CC3)cnc12 (stereo not shown) [Compound I-2, 3-((4-hydroxy-1-(3-phenylbutanoyl)piperidin-4-yl)methyl)-8-methylquinazolin-4(3H)-one] | < 200
O=C(c1ccccc1)N1CCC(O)(Cn2cnc3c(-c4ccccc4)cccc3c2=O)CC1 [Compound I-9, 3-((1-benzoyl-4-hydroxypiperidin-4-yl)methyl)-8-phenylquinazolin-4(3H)-one] | 1000 to 10000
COc1ccc2c(=O)n(CC3(O)CCN(C(=O)CC(C)c4ccccc4)CC3)cnc2c1 (stereo not shown) [Compound I-1, 3-((4-hydroxy-1-(3-phenylbutanoyl)piperidin-4-yl)methyl)-7-methoxyquinazolin-4(3H)-one] | < 200

From patent US10508098B2, “Quinazolinones and azaquinazolinones as ubiquitin-specific protease 7 inhibitors” (FORMA Therapeutics, Inc., priority 2015, dated 2019)
